Experiment [1] relates to db/db mice with type 2 diabetes. The experiment is described as follows: Effect on albumin in urine of db/db mice with type 2 diabetes. The note with it: 0.3 mg/kg po once per day for one week. Type of experiment: in vivo, mouse. The procedure:
Test Example 7: Test for Investigation of Effect on Albumin in Urine of db/db Mice with Type 2 Diabetes
db/db Mice (male, 8-week old) with type 2 diabetes were used for the test. The albumin concentrations in urine samples obtained by urine collection for 24 hours were measured by an ELISA method using an anti-mouse albumin antibody (RAM/Alb/7S, Nordic Immunology), and the creatinine concentration in urine was measured using CRE-EN Kainos (Kainos Co., Ltd.). The albumin-creatinine ratio (ACR) in urine was calculated, and a group (n=12) not treated with the test compound and a group (n=12) treated with the test compound were allocated without a bias in ACR. The test compound suspended in a 0.5% methyl cellulose (MC) solution was orally administered to the group treated with the test compound at a dose of 0.3 mg/kg once per day for one week (10 mL/kg). […] Urine was collected for 24 hours from the completion of the final administration, and using the calculated ACR as an indicator, the improvement effect of the test compound on the early nephropathy of the mice with type 2 diabetes was investigated. The inhibitory rate of ACR of the group treated with the test compound by taking the ACR value of the group not treated with the test compound as 100% was determined.

In the next experiment the target is rat EP4 receptor (Rattus norvegicus, UniProt P43114). The experiment is described as follows: Rat EP4 receptor antagonistic action by measurement of cAMP amount in CHO-K1 cells. Type of experiment: cell-based. On the set-up: expressed in transfected cells. To be noted: PGE2 100 nmol/L, CHO-K1 cells stably expressing rat EP4, average of two experiments; read-out: IC50 value with respect to the cAMP production action by PGE2 in rat EP4 receptor expressing CHO-K1 cells. The procedure: Test Example 4: Evaluation Test of Rat EP4 Receptor Antagonistic Action by Measurement of cAMP Amount
Chain of rat EP4 receptor (P43114 whole entry): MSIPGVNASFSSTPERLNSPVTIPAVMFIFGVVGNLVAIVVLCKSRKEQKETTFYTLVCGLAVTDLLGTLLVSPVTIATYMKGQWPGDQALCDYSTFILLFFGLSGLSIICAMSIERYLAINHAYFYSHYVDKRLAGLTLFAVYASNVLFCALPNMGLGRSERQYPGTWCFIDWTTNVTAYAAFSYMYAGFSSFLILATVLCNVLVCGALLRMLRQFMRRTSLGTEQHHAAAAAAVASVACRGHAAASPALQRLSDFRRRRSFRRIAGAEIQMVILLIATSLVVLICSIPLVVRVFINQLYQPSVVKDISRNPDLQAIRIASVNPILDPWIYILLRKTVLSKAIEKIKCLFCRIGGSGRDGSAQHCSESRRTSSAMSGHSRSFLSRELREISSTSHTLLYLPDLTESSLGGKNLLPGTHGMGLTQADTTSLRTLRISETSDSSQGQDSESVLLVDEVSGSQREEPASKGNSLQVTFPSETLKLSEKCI
Construction of Vector Expressing Rat EP4 Receptor:
The construction was carried out in the same manner as in Test Example 1.
Construction of Cells Stably Expressing Rat EP4 Receptor:
The expression vector of a rat EP4 receptor was transfected into a CHO—K1 cell (ATCC No.: CCL-61). The transfection was carried out according to an appended instruction, using Lipofectoamine (registered trademark) 2000 reagent (Invitrogen Inc.). After the transfection, the cells were cultured in an α-MEM culture medium (product No. 12571063, Invitrogen Inc.) containing G418 (Nakalai Tesque Inc.) to acquire a drug-resistant clone.
Cell Culture and Treatment with Compound:
CHO—K1 cells stably expressing a rat EP4 were seeded in 96-well plates at 0.5×10^4 cells/100 μL and cultured overnight. […]
The cAMP amount in the cell lysate was measured using a cAMP HiRange kit. […] After incubation, the fluorescence intensity of the cryptate at 620 nm and the fluorescence intensity of the d2 at 665 nm were measured using ARVO1420. The cAMPs of 280, 70, 17.5, 4.38, 1.09, 0.27, and 0.068 nmol/L were added to each well to create a standard curve and the fluorescence intensity was measured as described above. […] An average value was calculated from two experiment results.
(In general: Cyclic AMP is a second messenger, typically raised through Gs and lowered through Gi signalling.)

For `Cc1nn(Cc2cc3ccccc3cn2)c(C(=O)N[C@@H](C)c2ccc(C(=O)O)cc2)c1Br` [Compound A, 4-[(1S)-1-({[4-bromo-1-(isoquinolin-3-ylmethyl)-3-methyl-1H-pyrazol-5-yl]carbonyl}amino)ethyl]benzoic acid], the “Inhibitory rate of ACR (albumin-creatinine ratio in urine)” value in experiment [1] was 44%. The IC50 (in general, the concentration at which inhibition is half-maximal) at rat EP4 receptor came to 1.04 nM.
